Results on 34 molecules are retold here after patent US20100035871A1, “BENZOXAZINE DERIVATIVES AND USES THEREOF” (priority 2006, published 2010).

SMILES strings stand for the structures. Structures can show the parent of a compound that is named as a salt.

Consider `CN1CC(CN)Oc2c(-c3ccccc3)cccc21` (racemic) (as salt: hydrochloride) [Example 9, 1-(4-Methyl-8-phenyl-3,4-dihydro-2H-1,4-benzoxazin-2-yl)methanamine], for which the melting point was 80 °C (dec.). `Cc1ccccc1-c1cc(Cl)cc2c1NC(CN)CO2` (racemic) (as salt: hydrochloride) [Example 30, 1-[7-chloro-5-(2-methylphenyl)-3,4-dihydro-2H-1,4-benzoxazin-3-yl]methanamine]: the melting point was 86 °C (dec.). The value for `NCC1COc2cc(Cl)cc(-c3ccc(Cl)cc3C(F)(F)F)c2N1` (racemic) (as salt: hydrochloride) [Example 37, 1-{7-chloro-5-[4-chloro-2-(trifluoromethyl)phenyl]-3,4-dihydro-2H-1,4-benzoxazin-3-yl}methanamine] was 95 °C (dec.); that for `COc1ccc(-c2cccc3c2O[C@@H](CN)CN3)c(C)c1` (as salt: hydrochloride) [Example 50, 1-[(2S)-8-(4-methoxy-2-methylphenyl)-3,4-dihydro-2H-1,4-benzoxazin-2-yl]methanamine] was 222 °C (dec.). Take `NCC1COc2cc(F)cc(-c3ccccc3C(F)(F)F)c2N1` (racemic) (as salt: hydrochloride) [Example 55, 1-{7-fluoro-5-[2-(trifluoromethyl)phenyl]-3,4-dihydro-2H-1,4-benzoxazin-3-yl}methanamine]: the melting point was 99 °C (dec.). Molecule `CCN1CC(CN)Oc2c(-c3ccccc3Cl)cccc21` (racemic) (as salt: hydrochloride) [Example 19, 1-[8-(2-Chlorophenyl)-4-ethyl-3,4-dihydro-2H-1,4-benzoxazin-2-yl]methanamine] showed a melting point of 105 to 106 °C. The value for `Cc1cc(Cl)ccc1-c1cc(F)cc2c1NC(CN)CO2` (racemic) (as salt: hydrochloride) [Example 63, 1-[5-(4-chloro-2-methylphenyl)-7-fluoro-3,4-dihydro-2H-1,4-benzoxazin-3-yl]methanamine] was 90 °C (dec.); that for `Cc1ccccc1-c1cccc2c1OC(CN)CN2` (racemic) (as salt: hydrochloride) [Example 17, 1-[8-(2-Methylphenyl)-3,4-dihydro-2H-1,4-benzoxazin-2-yl]methanamine] was 195 to 197 °C; that for `NCC1CNc2cccc(-c3ccccc3C(F)(F)F)c2O1` (racemic) (as salt: hydrochloride) [Example 22, 1-{8-[2-(Trifluoromethyl)phenyl]-3,4-dihydro-2H-1,4-benzoxazin-2-yl}methanamine] was 185 to 187 °C.

For the molecule `NCC1COc2cc(Cl)cc(-c3ccccc3F)c2N1` (racemic) (as salt: hydrochloride) [Example 33, 1-[7-chloro-5-(2-fluorophenyl)-3,4-dihydro-2H-1,4-benzoxazin-3-yl]methanamine], the melting point is 95 °C (dec.). For `CN1CC(CN)Oc2c(-c3ccccc3Cl)cccc21` (racemic) (as salt: hydrochloride) [Example 11, 1-[8-(2-Chlorophenyl)-4-methyl-3,4-dihydro-2H-1,4-benzoxazin-2-yl]methanamine], the melting point is 80 °C (dec.). In the case of `NCC1CNc2cc(F)cc(-c3c(Cl)cccc3Cl)c2O1` (racemic) (as salt: hydrochloride) [Example 10, 1-[8-(2,6-Dichlorophenyl)-6-fluoro-3,4-dihydro-2H-1,4-benzoxazin-2-yl]methanamine], the melting point was 135 to 136 °C. For `CN1CC(CN)Oc2c(-c3ccccc3F)cccc21` (racemic) (as salt: hydrochloride) [Example 7, 1-[8-(2-Fluorophenyl)-4-methyl-3,4-dihydro-2H-1,4-benzoxazin-2-yl]methanamine], the melting point was 104 °C (dec.). The value for `COc1ccc(-c2cc(Cl)cc3c2NC(CN)CO3)cc1` (racemic) (as salt: hydrochloride) [Example 26, 1-[7-Chloro-5-(4-methoxyphenyl)-3,4-dihydro-2H-1,4-benzoxazin-3-yl]methanamine] was 101 °C (dec.).

As for `COc1ccc(-c2cccc3c2OC(CN)CN3C)cc1` (racemic) (as salt: hydrochloride) [Example 6, 1-[8-(4-Methoxyphenyl)-4-methyl-3,4-dihydro-2H-1,4-benzoxazin-2-yl]methanamine], the melting point lay in the range of 90 to 92 °C. The value for `Cc1ccccc1-c1cc(F)cc2c1NC(CN)CO2` (racemic) (as salt: hydrochloride) [Example 58, 1-[7-fluoro-5-(2-methylphenyl)-3,4-dihydro-2H-1,4-benzoxazin-3-yl]methanamine] was 78 °C (dec.).

`COc1ccc(-c2cccc3c2OC(CN)CN3)c(C)c1` (racemic) (as salt: hydrochloride) [Example 24, 1-[8-(4-Methoxy-2-methylphenyl)-3,4-dihydro-2H-1,4-benzoxazin-2-yl]methanamine] yielded a melting point of 230 to 232 °C. Turning to `COc1ccccc1-c1cc(F)cc2c1NC(CN)CO2` (racemic) (as salt: hydrochloride) [Example 64, 1-[7-fluoro-5-(2-methoxyphenyl)-3,4-dihydro-2H-1,4-benzoxazin-3-yl]methanamine], the melting point is 84 °C (dec.).

For `NCC1CNc2cccc(-c3cc(Cl)ccc3Cl)c2O1` (racemic) (as salt: hydrochloride) [Example 14, 1-[8-(2,5-Dichlorophenyl)-3,4-dihydro-2H-1,4-benzoxazin-2-yl]methanamine], the melting point is 130 °C (dec.).

On to `NCC1COc2cc(Cl)cc(-c3ccc(C(F)(F)F)cc3C(F)(F)F)c2N1` (racemic) (as salt: hydrochloride) [Example 38, 1-{5-[2,4-bis(trifluoromethyl)phenyl]-7-chloro-3,4-dihydro-2H-1,4-benzoxazin-3-yl}methanamine], for which the melting point is 98 °C (dec.). Turning to `NC[C@@H]1CNc2cccc(-c3ccccc3Cl)c2O1` (as salt: hydrochloride) [Example 40, 1-[(2R)-8-(2-chlorophenyl)-3,4-dihydro-2H-1,4-benzoxazin-2-yl]methanamine], the melting point is 135 °C (dec.). The value for `COc1ccc(-c2cc(Cl)cc3c2NC(CN)CO3)c(C)c1` (racemic) (as salt: hydrochloride) [Example 27, 1-[7-chloro-5-(4-methoxy-2-methylphenyl)-3,4-dihydro-2H-1,4-benzoxazin-3-yl]methanamine] was 98 °C (dec.). To `NC[C@@H]1CNc2cccc(-c3ccccc3C(F)(F)F)c2O1` (as salt: hydrochloride) [Example 41, 1-{(2R)-8-[2-(trifluoromethyl)phenyl]-3,4-dihydro-2H-1,4-benzoxazin-2-yl}methanamine] belongs 180 °C (dec.); to `COc1ccc(-c2cccc3c2O[C@H](CN)CN3)cc1` (as salt: hydrochloride) [Example 45, 1-[(2R)-8-(4-methoxyphenyl)-3,4-dihydro-2H-1,4-benzoxazin-2-yl]methanamine], 196 °C (dec.); to `COc1ccc(-c2cc(Cl)cc3c2NC(CN)CO3)c(Cl)c1` (racemic) (as salt: hydrochloride) [Example 32, 1-[7-chloro-5-(2-chloro-4-methoxyphenyl)-3,4-dihydro-2H-1,4-benzoxazin-3-yl]methanamine], 105 °C (dec.). To `Cc1cc(Cl)ccc1-c1cccc2c1OC(CN)CN2C` (racemic) (as salt: hydrochloride) [Example 2, 1-[8-(4-Chloro-2-methylphenyl)-4-methyl-3,4-dihydro-2H-1,4-benzoxazin-2-yl]methanamine] belongs 109 to 112 °C. On to `COc1ccc(-c2cccc3c2O[C@@H](CN)CN3)cc1` (as salt: hydrochloride) [Example 51, 1-[(2S)-8-(4-methoxyphenyl)-3,4-dihydro-2H-1,4-benzoxazin-2-yl]methanamine], for which the melting point is 198 °C (dec.).

Regarding `CN1CC(CN)Oc2c(-c3cc(Cl)ccc3Cl)cccc21` (racemic) (as salt: hydrochloride) [Example 13, 1-[8-(2,5-Dichlorophenyl)-4-methyl-3,4-dihydro-2H-1,4-benzoxazin-2-yl]methanamine], the melting point is 90 °C (dec.). The value for `Cc1cc(Cl)ccc1-c1cccc2c1OC(CN)CN2` (racemic) (as salt: hydrochloride) [Example 20, 1-[8-(4-chloro-2-methylphenyl)-3,4-dihydro-2H-1,4-benzoxazin-2-yl]methanamine] was 192 to 194 °C; that for `COc1ccc(-c2cc(Cl)cc3c2N(C)C(CN)CO3)c(C)c1` (racemic) (as salt: hydrochloride) [Example 28, 1-[7-chloro-5-(4-methoxy-2-methylphenyl)-4-methyl-3,4-dihydro-2H-1,4-benzoxazin-3-yl]methanamine] was 106 °C (dec.); that for `NCC1COc2cc(F)cc(-c3cccc(Cl)c3)c2N1` (racemic) (as salt: hydrochloride) [Example 65, 1-[5-(3-chlorophenyl)-7-fluoro-3,4-dihydro-2H-1,4-benzoxazin-3-yl]methanamine] was 76 °C (dec.). Consider `NCC1CNc2cccc(-c3ccc(Cl)cc3Cl)c2O1` (racemic) (as salt: hydrochloride) [Example 15, 1-[8-(2,4-Dichlorophenyl)-3,4-dihydro-2H-1,4-benzoxazin-2-yl]methanamine], for which the melting point is 158 to 161 °C. To `COc1ccc(-c2cc(F)cc3c2NC(CN)CO3)c(Cl)c1` (racemic) (as salt: hydrochloride) [Example 59, 1-[5-(2-chloro-4-methoxyphenyl)-7-fluoro-3,4-dihydro-2H-1,4-benzoxazin-3-yl]methanamine] belongs 84 °C (dec.). On to `NCC1CN(CC2CC2)c2cccc(-c3ccccc3Cl)c2O1` (racemic) (as salt: hydrochloride) [Example 12, 1-[8-(2-Chlorophenyl)-4-(cyclopropylmethyl)-3,4-dihydro-2H-1,4-benzoxazin-2-yl]methanamine], for which the melting point is 90 °C (dec.).
